# Test results as given in PMC9457810, “Synthesis, Structure and Antileishmanial Evaluation of Endoperoxide–Pyrazole Hybrids” (Molecules, 2022).
# Counter-ions that a name gives are not always drawn.
# Tests used:
# L. infantum = tested on: L. infantum; design: method as in PMID 26014947; conditions: given in Figure 1A; cited from earlier work
# L. tropica promastigotes = experiment: Leishmania promastigotes in vitro susceptibility (MTT), L. tropica; assay type: cell-based; conditions: Leishmania tropica, 48 h, at least three independent assays, read-out: Promastigotes Susceptibility IC50 ± SEM, L. tropica
# [1] = Solubility in culture media (observation); assay type: physicochemical
# Excerpt: Calculated intrinsic aqueous solubility (ClogS) values show similar values between trioxolanes (1.20–1.38) and tetraoxanes (1.18–1.21). However, the poor solubility of dispiro 4′’-substituted tetraoxanes may be associated to their structural symmetry. A decrease in molecular symmetry has been correlated to better physicochemical properties, such as absorption and solubility, resulting in enhanced systemic exposure to a drug. So it is anticipated that 3′’-substituted analogues could overcome this solubility issue. Therefore, future optimization to 3”-substituted analogues should be considered. Likewise, conversion of the compounds into water-soluble salts, as well as encapsulation of the endoperoxide structures in delivery systems such as liposomes, could represent alternative strategies to solve the solubility issue.
# [2] = tested on: L. infantum promastigotes; experiment: Leishmania promastigotes in vitro susceptibility (MTT), L. infantum; assay type: cell-based; conditions: Leishmania infantum, 48 h, at least three independent assays, read-out: Promastigotes Susceptibility IC50 ± SEM, L. infantum
# THP-1 cell line = experiment: In vitro cytotoxicity assessment in THP-1 cell line (MTT); assay type: cell-based, human; conditions: THP-1 cells, 48 h, MTT; at least three independent assays; read-out: Cytotoxicity CC50 ± SEM
# Protocol: (§1) THP-1 (ATCC® TIB-202TM) human acute monocytic leukemic cell line was obtained from DSMZ, Germany and cultured in RPMI 1640 (Sigma, Darmstadt, Germany) supplemented with 10% (v/v) FBS, 1% (v/v) penicillin-streptomycin (Sigma), and L-glutamine 200 mM (Sigma) at 37 °C, 5% CO2.
# (§2) THP-1 cell line was used to calculate the endoperoxide–pyrazole hybrids’ half-maximal cytotoxic concentration (CC50). THP-1 was plated at a final density of 5 × 10^5 cells/mL, in 96-well flat bottom culture plates (VWR), using six different concentrations of the compounds (OZ1, OZ2, T1, T2 and PIR: 800, 400, 200, 100, 50, 25 µM) and amphotericin B (10, 5, 2.5, 1.25, 0.625, 0.313 µM). A blank (RPMI medium alone) and an untreated control (parasites with RPMI medium plus 1% DMSO as vehicle solution) were also included. All the compounds were plated out in quadruplicate and incubated for 48 h at 37 °C ± 1 °C, 5% CO2.
# (§3) Following the incubation period, 20 µL per well of MTT was added as described in Section 3.5.2. After absorbance readings, the CC50 values of each compound were determined with GraphPad Prism V 9.0 (Dotmatics, San Diego, CA, USA) as previously described. At least three independent assays were performed.
# L. donovani = tested on: L. donovani; design: method as in PMID 31979089; conditions: given in Figure 1A; cited from earlier work
# L. major = tested on: L. major; design: method as in PMID 30215271; conditions: given in Figure 1A; cited from earlier work
# [3] = In vitro cytotoxicity assessment in THP-1 cell line (MTT); assay type: cell-based, human; conditions: human, THP-1 cells, 48 h, MTT; at least three independent assays; read-out: Cytotoxicity CC50 ± SEM
# Protocol: as §1, §2, §3
structure (smiles),measurement,setting,value
NCC1CCC2(CC1)OOC1(O2)C2CC3CC(C2)CC1C3 (stereo not shown) [LC95],IC50,L. infantum,9.35 ± 3.64 µM
"Nc1ccnn1C(=O)C1CCC2(CC1)OOC1(OO2)C2CC3CC(C2)CC1C3 (stereo not shown) [T1, (5-Amino-1H-pyrazol-1-yl)(dispiro[cyclohexane-1,3′-[1,2,4,5]tetraoxane-6′,2″-tricyclo-[3.3.1.1^3,7]-decan]-4-yl)methanone]",IC50,L. tropica promastigotes,> 400 µM
same,Solubility in M199 and RPMI medium,[1],low solubility
same,IC50,[2],> 400 µM
same,CC50,THP-1 cell line,> 800 µM
O=C1CCC2(CC1)OOC1(OO2)C2CC3CC(C2)CC1C3 [LC140],IC50,L. donovani,2520 ± 650 nM
COc1ccc(-c2cn(-c3ccccc3)nc2/C=N/N=C/c2c(C)nn(-c3ccccc3)c2Cl)cc1 [3i],IC50,L. major,740 ± 100 nM
"Nc1ccnn1C(=O)C1CCC2(CC1)OOC1(OO2)C2CC3CC(C2)CC1C3 (stereo not shown) (as salt: tosylate) [T1•TsOH, (5-Amino-1H-pyrazol-1-yl) (dispiro[cyclohexane-1,3′-[1,2,4,5]tetraoxane-6′,2″-tricyclo-[3.3.1.1^3,7]-decan]-4-yl) methanone p-tosylate]",melting point,,156 °C (dec.)
"Nc1ccn(C(=O)C2CCC3(CC2)OOC2(OO3)C3CC4CC(C3)CC2C4)n1 (stereo not shown) [T2, (3-Amino-1H-pyrazol-1-yl)(dispiro[cyclohexane-1,3′-[1,2,4,5]tetraoxane-6′,2″-tricyclo[3.3.1.1^3,7]decan]-4-yl)methanone]",Solubility in M199 and RPMI medium,[1],low solubility
same,CC50 at 48 h,[3],> 800 µM
